Data as given in PubChem BioAssay AID2060896 (Molecular Pharmacology Branch, DTP, NCI, 2025).

Test system: 941728-121-R-J1-PDC complex spheroid viability
Experiment: Anticancer human tumor 941728-121-R-J1-PDC patient-derived lung adenocarcinoma cell line growth inhibition [RAS]
Details: for IC50: curve of first compound; for viability, T/C: stronger effect = lower value
Outline: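 Agents were tested in combination matrices in half-log decrements from a top concentration at or near clinical Cmax (10 microM if undetermined). Targets were multi-cell spheroids of tumour lines plus HUVEC and MSC stromal cells.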

[1] = second compound 0.000949 µM, first compound 0.0316 µM
[2] = second compound 0.000949 µM, first compound 0.1 µM
[3] = second compound 0.000949 µM, first compound 0.316 µM
[4] = second compound 0.000949 µM, first compound 1 µM
[5] = second compound 0.000949 µM, first compound 3.16 µM
[6] = second compound 0.000949 µM, first compound 10 µM
[7] = second compound 0.003 µM, first compound 0.0316 µM
[8] = second compound 0.003 µM, first compound 0.1 µM
[9] = second compound 0.003 µM, first compound 0.316 µM
[10] = second compound 0.003 µM, first compound 1 µM
[11] = second compound 0.003 µM, first compound 3.16 µM
[12] = second compound 0.003 µM, first compound 10 µM
[13] = second compound 0.00949 µM, first compound 0.0316 µM
[14] = second compound 0.00949 µM, first compound 0.1 µM
[15] = second compound 0.00949 µM, first compound 0.316 µM
[16] = second compound 0.00949 µM, first compound 1 µM
[17] = second compound 0.00949 µM, first compound 3.16 µM
[18] = second compound 0.00949 µM, first compound 10 µM
[19] = second compound 0.03 µM, first compound 0.0316 µM
[20] = second compound 0.03 µM, first compound 0.1 µM
[21] = second compound 0.03 µM, first compound 0.316 µM
[22] = second compound 0.03 µM, first compound 1 µM
[23] = second compound 0.03 µM, first compound 3.16 µM
[24] = second compound 0.03 µM, first compound 10 µM
[25] = second compound 0.0949 µM, first compound 0.0316 µM
[26] = second compound 0.0949 µM, first compound 0.1 µM
[27] = second compound 0.0949 µM, first compound 0.316 µM
[28] = second compound 0.0949 µM, first compound 1 µM
[29] = second compound 0.0949 µM, first compound 3.16 µM
[30] = second compound 0.0949 µM, first compound 10 µM
[31] = second compound 0.3 µM, first compound 0.0316 µM
[32] = second compound 0.3 µM, first compound 0.1 µM
[33] = second compound 0.3 µM, first compound 0.316 µM
[34] = second compound 0.3 µM, first compound 1 µM
[35] = second compound 0.3 µM, first compound 3.16 µM
[36] = second compound 0.3 µM, first compound 10 µM
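Further: spheroids exposed to compounds for 7 days before readout.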
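Wherever viability, T/C is given: 100% = DMSO vehicle control viability.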

Q: How did the IC50 (second compound 0.000949 µM) turn out when `CC(=O)OC12COC1CC(O)C1(C)C(=O)C(O)C3=C(C)C(OC(=O)C(O)C(NC(=O)OC(C)(C)C)c4ccccc4)CC(O)(C(OC(=O)c4ccccc4)C21)C3(C)C` (centres undefined) + CCn1c(-c2cc(N3CCN(C)CC3)cnc2C(C)OC)c2c3cc(ccc31)-c1csc(n1)CC(NC(=O)C1CC1C)C(=O)N1CCCC(N1)C(=O)OCC(C)(C)C2 was run?
A: < 31.6 nM

Q: And the IC50 (second compound 0.003 µM)?
A: < 31.6 nM

Q: What about the IC50 (second compound 0.00949 µM) of the same compound?
A: < 31.6 nM

Q: And the IC50 (second compound 0.03 µM)?
A: < 31.6 nM

Q: And the IC50 (second compound 0.0949 µM)?
A: < 31.6 nM

Q: What about the IC50 (second compound 0.3 µM) of the same compound?
A: < 31.6 nM

Q: And the viability, T/C [1]?
A: 21.7%

Q: And the viability, T/C [2]?
A: 21.4%

Q: And the viability, T/C [3]?
A: 16.5%

Q: And the viability, T/C [4]?
A: 19.6%

Q: And the viability, T/C [5]?
A: 21.3%

Q: What about the viability, T/C [6] of the same compound?
A: 16.5%

Q: What about the viability, T/C [7] of the same compound?
A: 15.3%

Q: What about the viability, T/C [8] of the same compound?
A: 16.9%

Q: What about the viability, T/C [9] of the same compound?
A: 12.5%

Q: And the viability, T/C [10]?
A: 13.8%

Q: And the viability, T/C [11]?
A: 13.4%

Q: And the viability, T/C [12]?
A: 11.2%

Q: What about the viability, T/C [13] of the same compound?
A: 13.5%

Q: What about the viability, T/C [14] of the same compound?
A: 9.99%

Q: What about the viability, T/C [15] of the same compound?
A: 11.2%

Q: What about the viability, T/C [16] of the same compound?
A: 9.23%

Q: What about the viability, T/C [17] of the same compound?
A: 10.8%

Q: What about the viability, T/C [18] of the same compound?
A: 10.2%

Q: And the viability, T/C [19]?
A: 10.2%

Q: And the viability, T/C [20]?
A: 9.9%

Q: And the viability, T/C [21]?
A: 9.46%

Q: And the viability, T/C [22]?
A: 9.75%

Q: And the viability, T/C [23]?
A: 7.17%

Q: And the viability, T/C [24]?
A: 11.4%

Q: What about the viability, T/C [25] of the same compound?
A: 10.4%

Q: And the viability, T/C [26]?
A: 11%

Q: What about the viability, T/C [27] of the same compound?
A: 9.54%

Q: And the viability, T/C [28]?
A: 8.5%

Q: What about the viability, T/C [29] of the same compound?
A: 8.8%

Q: And the viability, T/C [30]?
A: 9.11%

Q: And the viability, T/C [31]?
A: 9.41%

Q: What about the viability, T/C [32] of the same compound?
A: 9.25%

Q: And the viability, T/C [33]?
A: 8.94%

Q: And the viability, T/C [34]?
A: 9.02%

Q: And the viability, T/C [35]?
A: 7.68%

Q: And the viability, T/C [36]?
A: 9.8%

Q: `CCC(CC)c1cc(NC2CCC(N)C2)n2nccc2n1` (centres undefined) + CCn1c(-c2cc(N3CCN(C)CC3)cnc2C(C)OC)c2c3cc(ccc31)-c1csc(n1)CC(NC(=O)C1CC1C)C(=O)N1CCCC(N1)C(=O)OCC(C)(C)C2 was tested. Which IC50 (second compound 0.000949 µM) did it give?
A: < 31.6 nM

Q: What about the IC50 (second compound 0.003 µM) of the same compound?
A: < 31.6 nM

Q: What about the IC50 (second compound 0.00949 µM) of the same compound?
A: < 31.6 nM

Q: And the IC50 (second compound 0.03 µM)?
A: < 31.6 nM

Q: What about the IC50 (second compound 0.0949 µM) of the same compound?
A: < 31.6 nM

Q: What about the IC50 (second compound 0.3 µM) of the same compound?
A: < 31.6 nM

Q: And the viability, T/C [1]?
A: 29.4%

Q: What about the viability, T/C [2] of the same compound?
A: 28.1%

Q: What about the viability, T/C [3] of the same compound?
A: 27.6%

Q: And the viability, T/C [4]?
A: 32.5%

Q: And the viability, T/C [5]?
A: 15%

Q: And the viability, T/C [6]?
A: 41.4%

Q: And the viability, T/C [7]?
A: 23.7%

Q: What about the viability, T/C [8] of the same compound?
A: 21.6%

Q: And the viability, T/C [9]?
A: 20.7%

Q: And the viability, T/C [10]?
A: 26.8%

Q: What about the viability, T/C [11] of the same compound?
A: 12.4%

Q: What about the viability, T/C [12] of the same compound?
A: 39.3%

Q: What about the viability, T/C [13] of the same compound?
A: 18%

Q: And the viability, T/C [14]?
A: 16.2%

Q: And the viability, T/C [15]?
A: 20.5%

Q: And the viability, T/C [16]?
A: 24.7%

Q: And the viability, T/C [17]?
A: 14.5%

Q: What about the viability, T/C [18] of the same compound?
A: 41.5%

Q: And the viability, T/C [19]?
A: 14.8%

Q: What about the viability, T/C [20] of the same compound?
A: 15.4%

Q: What about the viability, T/C [21] of the same compound?
A: 19%

Q: What about the viability, T/C [22] of the same compound?
A: 21.2%

Q: And the viability, T/C [23]?
A: 19.3%

Q: What about the viability, T/C [24] of the same compound?
A: 51%

Q: What about the viability, T/C [25] of the same compound?
A: 14.2%

Q: And the viability, T/C [26]?
A: 15%

Q: What about the viability, T/C [27] of the same compound?
A: 16.5%

Q: What about the viability, T/C [28] of the same compound?
A: 21.4%

Q: And the viability, T/C [29]?
A: 18.7%

Q: What about the viability, T/C [30] of the same compound?
A: 50.8%

Q: What about the viability, T/C [31] of the same compound?
A: 13.3%

Q: What about the viability, T/C [32] of the same compound?
A: 15.2%

Q: What about the viability, T/C [33] of the same compound?
A: 17.8%

Q: And the viability, T/C [34]?
A: 20%

Q: What about the viability, T/C [35] of the same compound?
A: 13.1%

Q: And the viability, T/C [36]?
A: 49.1%
